From PubChem BioAssay AID206 (DTP/NCI, 2004)
Several values for one entry are separate records, joined by “and”; a condition that tells them apart may be missing. Identical values can stand only once. Records with an inconclusive call do not appear.

System: nude mice, HT29 intrarenal xenograft, tumor weight T/C
Test: NCI In Vivo Anticancer Drug Screen. Data for tumor model HT29;CX-1 Human Adenocarcinoma (MER+) (intrarenal inoculation) in NU/NU Swiss (nude) mice
Details: endpoint: mean tumor weight change, higher = larger tumour
Procedure, shortened: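 Readout: treated/vehicle-control ratio of the measured endpoint (tumor size or survival) in transplanted-tumor mice.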

[1] = dose: 37.5 mg/kg/injection, schedule: Q04DX004 (sc), vehicle: saline with Tween-80
[2] = dose: 300.0 mg/kg/injection, schedule: Q04DX004 (sc), vehicle: saline with Tween-80
[3] = dose: 150.0 mg/kg/injection, schedule: Q04DX004 (sc), vehicle: saline with Tween-80
[4] = dose: 600.0 mg/kg/injection, schedule: Q04DX004 (sc), vehicle: saline with Tween-80
[5] = dose: 300.0 mg/kg/injection, schedule: Q04DX004 (sc), vehicle: Klucel (hydroxypropylcellulose) (HPC)
[6] = dose: 600.0 mg/kg/injection, schedule: Q04DX004 (sc), vehicle: Klucel (hydroxypropylcellulose) (HPC)
[7] = dose: 1200.0 mg/kg/injection, schedule: Q04DX004 (sc), vehicle: Klucel (hydroxypropylcellulose) (HPC)
[8] = dose: 2400.0 mg/kg/injection, schedule: Q04DX004 (sc), vehicle: Klucel (hydroxypropylcellulose) (HPC)
[9] = dose: 100.0 mg/kg/injection, schedule: Q01DX010 (sc), vehicle: saline
[10] = dose: 200.0 mg/kg/injection, schedule: Q01DX010 (sc), vehicle: saline
[11] = dose: 1200.0 mg/kg/injection, schedule: Q04DX004 (sc), vehicle: saline with Tween-80

COc1cc(NS(C)(=O)=O)ccc1Nc1c2ccccc2nc2ccccc12
T/C (dose: 0.38 mg/kg/injection, schedule: Q01DX010 (sc), vehicle: other): 33 % of control | T/C (dose: 0.75 mg/kg/injection, schedule: Q01DX010 (sc), vehicle: lactic acid): 43 % of control | T/C (dose: 0.75 mg/kg/injection, schedule: Q01DX010 (sc), vehicle: other): 15 % of control | T/C (dose: 0.78 mg/kg/injection, schedule: Q01DX010 (sc), vehicle: lactic acid): 15 % of control | T/C (dose: 1.5 mg/kg/injection, schedule: Q01DX010 (sc), vehicle: lactic acid): 30 % of control | T/C (dose: 1.5 mg/kg/injection, schedule: Q01DX010 (sc), vehicle: other): 39 % of control | T/C (dose: 3.0 mg/kg/injection, schedule: Q01DX010 (sc), vehicle: other): 99 % of control

COC1C(O)CC(OC2CC(OC3CC(O[C@@H]4C(=O)c5c(cc6cc(OC7CC(OC8CC(O)C(O)C(C)O8)C(O)C(C)O7)c(C)c(O)c6c5O)C[C@H]4[C@H](OC)C(=O)[C@@H](O)[C@@H](C)O)OC(C)C3O)OC(C)C2O)OC1C (stereo not given in full)
T/C (dose: 0.75 mg/kg/injection, schedule: Q01DX010 (sc), vehicle: saline): 27 % of control and 50 % of control | T/C (dose: 1.5 mg/kg/injection, schedule: Q01DX010 (sc), vehicle: saline): 29 % of control and 41 % of control

COc1ccc(S(=O)(=O)N=N/C=C2\C=CC=CN2O)cc1OC
T/C (dose: 18.75 mg/kg/injection, schedule: Q04DX004 (sc), vehicle: saline with Tween-80): 61 % of control | T/C [1]: 54 % of control | T/C [2]: 55 % of control

C=CS(C=C)=NS(=O)(=O)c1ccc(C)cc1
T/C (dose: 18.75 mg/kg/injection, schedule: Q04DX004 (sc), vehicle: Klucel (hydroxypropylcellulose) (HPC)): 91 % of control | T/C (dose: 37.5 mg/kg/injection, schedule: Q04DX004 (sc), vehicle: Klucel (hydroxypropylcellulose) (HPC)): 60 % of control

CN=S(=O)(OCCCCCOS(=O)(=NC)c1ccccc1)c1ccccc1 (stereo not given)
T/C [3]: 66 % of control | T/C [2]: 60 % of control | T/C [4]: 27 % of control

C=C(C)[C@]12CC(C)C34OC(/C=C\C=C\CCCCCCCCC)(O[C@@H]1[C@@H]3[C@@H]1O[C@]1(CO)[C@@H](O)[C@]1(O)C(=O)C(C)=C[C@@H]41)O2 (stereo not given in full)
T/C (dose: 0.38 mg/kg/injection, schedule: Q04DX004 (sc), vehicle: distilled water + alcohol): 73 % of control | T/C (dose: 0.75 mg/kg/injection, schedule: Q04DX004 (sc), vehicle: distilled water + alcohol): 40 % of control | T/C (dose: 1.5 mg/kg/injection, schedule: Q04DX004 (sc), vehicle: distilled water + alcohol): 63 % of control | T/C (dose: 3.0 mg/kg/injection, schedule: Q04DX004 (sc), vehicle: distilled water + alcohol): 37 % of control

Nc1nc(=S)c2ncn(C3CC(O)C(CO)O3)c2[nH]1 (stereo not given)
T/C (dose: 1.8 mg/kg/injection, schedule: Q04DX004 (sc), vehicle: saline with Tween-80): 119 % of control | T/C (dose: 3.75 mg/kg/injection, schedule: Q04DX004 (sc), vehicle: saline with Tween-80): 105 % of control | T/C (dose: 7.5 mg/kg/injection, schedule: Q04DX004 (sc), vehicle: saline with Tween-80): 107 % of control | T/C (dose: 100.0 mg/kg/injection, schedule: Q01DX010 (sc), vehicle: Klucel (hydroxypropylcellulose) (HPC)): 114 % of control

[CH3][Sn]([CH3])([Cl])[S]CCN
T/C (dose: 18.75 mg/kg/injection, schedule: Q04DX004 (sc), vehicle: suspension in saline): 92 % of control | T/C (dose: 37.5 mg/kg/injection, schedule: Q04DX004 (sc), vehicle: suspension in saline): 65 % of control | T/C (dose: 75.0 mg/kg/injection, schedule: Q04DX004 (sc), vehicle: suspension in saline): 40 % of control

CC1=NNC(=O)C1CCO (stereo not given)
T/C (dose: 200.0 mg/kg/injection, schedule: Q04DX004 (sc), vehicle: Klucel (hydroxypropylcellulose) (HPC)): 66 % of control | T/C (dose: 400.0 mg/kg/injection, schedule: Q04DX004 (sc), vehicle: Klucel (hydroxypropylcellulose) (HPC)): 44 % of control | T/C (dose: 800.0 mg/kg/injection, schedule: Q04DX004 (sc), vehicle: Klucel (hydroxypropylcellulose) (HPC)): 99 % of control | T/C (dose: 1600.0 mg/kg/injection, schedule: Q04DX004 (sc), vehicle: Klucel (hydroxypropylcellulose) (HPC)): 63 % of control

CCC(=O)O[C@H]1CC[C@H]2[C@@H]3CCC4=CC(=O)CC[C@]4(C)[C@H]3CC[C@]12C
T/C [5]: 59 % of control | T/C [6]: 82 % of control | T/C [7]: 103 % of control | T/C [8]: 52 % of control

CCN(CC)CCNc1ccc(C)c2sc3ccccc3c(=O)c12
T/C [9]: 87 % of control

Cc1c2ccncc2c(C)c2c1[nH]c1ccccc12
T/C (dose: 12.5 mg/kg/injection, schedule: Q01DX010 (sc), vehicle: saline): 70 % of control | T/C (dose: 25.0 mg/kg/injection, schedule: Q01DX010 (sc), vehicle: saline): 47 % of control

CCOC(=O)c1c[nH]c2oc(/C=N/N3CC(CN4CCOCC4)OC3=O)cc2c1=O (stereo not given)
T/C (dose: 50.0 mg/kg/injection, schedule: Q01DX010 (sc), vehicle: saline): 69 % of control | T/C [9]: 124 % of control | T/C [10]: 86 % of control

CCCCCCC(=O)CC(SCC)c1ccccc1Cl (stereo not given)
T/C [3]: 94 % of control | T/C [2]: 92 % of control | T/C [11]: 99 % of control

CC1(O)CC23CC(O)C4(O)C(CC(O)C4(C)C)C(C)(O)C2CCC1C3O (stereo not given)
T/C (dose: 0.25 mg/kg/injection, schedule: Q04DX004 (sc), vehicle: Klucel (hydroxypropylcellulose) (HPC)): 46 % of control | T/C (dose: 0.5 mg/kg/injection, schedule: Q04DX004 (sc), vehicle: Klucel (hydroxypropylcellulose) (HPC)): 37 % of control | T/C (dose: 1.0 mg/kg/injection, schedule: Q04DX004 (sc), vehicle: Klucel (hydroxypropylcellulose) (HPC)): 82 % of control

CCN(CC)c1ccc2cc(-c3nc4ccccc4n3C)c(=O)oc2c1
T/C (dose: 75.0 mg/kg/injection, schedule: Q04DX004 (sc), vehicle: Klucel (hydroxypropylcellulose) (HPC)): 82 % of control | T/C (dose: 150.0 mg/kg/injection, schedule: Q04DX004 (sc), vehicle: Klucel (hydroxypropylcellulose) (HPC)): 67 % of control | T/C [5]: 88 % of control

CC(=O)OCC1(C)NC(=O)c2ccccc2O1 (stereo not given)
T/C [3]: 78 % of control | T/C [2]: 79 % of control | T/C [4]: 100 % of control | T/C [11]: 52 % of control

Cc1cc2c(C(C)C)c(O)c(O)c(C=O)c2c(O)c1-c1c(C)cc2c(C(C)C)c(O)c(O)c(C=O)c2c1O
T/C [1]: 100 % of control | T/C (dose: 75.0 mg/kg/injection, schedule: Q04DX004 (sc), vehicle: saline with Tween-80): 71 % of control | T/C [3]: 64 % of control | T/C [2]: 46 % of control

Cn1cc(C2NC(=O)c3ccccc3N2)c2ccccc21 (stereo not given)
T/C [5]: 97 % of control | T/C [6]: 116 % of control | T/C [7]: 60 % of control | T/C [8]: 94 % of control

O=c1cnn(C2OC(CO)C(O)C2O)c(=O)[nH]1 (stereo not given)
T/C [10]: 71 % of control | T/C (dose: 400.0 mg/kg/injection, schedule: Q01DX010 (sc), vehicle: saline): 100 % of control | T/C (dose: 800.0 mg/kg/injection, schedule: Q01DX010 (sc), vehicle: saline): 97 % of control | T/C (dose: 1600.0 mg/kg/injection, schedule: Q01DX010 (sc), vehicle: saline): 34 % of control

OCC1OC(n2cnc3cc(Cl)c(Cl)cc32)C(O)C1O (stereo not given)
T/C [2]: 111 % of control | T/C [4]: 60 % of control | T/C [11]: 122 % of control

C[C@H](N)C(=O)N[C@@H]1[C@H]2C(=C(O)C[C@@H](O)[C@@H]2O)C(=O)O[C@]1(C)C(Cl)Cl
T/C (dose: 1.5 mg/kg/injection, schedule: Q04DX004 (sc), vehicle: Klucel (hydroxypropylcellulose) (HPC)): 33 % of control

O=CN(SSN(C=O)C1CCCCC1)C1CCCCC1
T/C (dose: 100.0 mg/kg/injection, schedule: Q01DX010 (sc), vehicle: saline with Tween-80): 36 % of control | T/C (dose: 200.0 mg/kg/injection, schedule: Q01DX010 (sc), vehicle: saline with Tween-80): 178 % of control | T/C (dose: 400.0 mg/kg/injection, schedule: Q01DX010 (sc), vehicle: saline with Tween-80): 85 % of control | T/C (dose: 800.0 mg/kg/injection, schedule: Q01DX010 (sc), vehicle: saline with Tween-80): 90 % of control
